In US20230074885A1, “BORTEZOMIB-LOADED NANOPARTICLES” (The Johns Hopkins University, priority 2020, published 2023):

How the values were obtained:
[1] = system: primary patient-derived cancer organoid (PDO) cultures from patients with liver cancers; test: FDA-approved cancer drugs tested across patient-derived cancer organoid (PDO) cultures; assay type: cell-based, human
Procedure: Thirty-seven primary patient-derived cancer organoid (PDO) cultures have been established from patients with liver cancers (including hepatocellular cancer and cholangiocarcinoma). Food and Drug Administration (FDA)-approved cancer drugs (irrespective of FDA indication) were tested across all 37 PDO cultures.

[2] = system: patient derived xenograft (PDX) model established from a human primary HCC; test: In vivo treatment of patient derived xenograft (PDX) mouse model of liver cancer; design: species or system NSG mice
Procedure: In vivo therapeutic effect of BTZ-loaded nanoparticles. The therapeutic effect of BTZ-loaded nanoparticles was assessed using patient derived xenograft (PDX) model. Briefly, fresh human tumor tissue was harvested from HCC patients, then cut in small pieces (3^3 mm^3) and implanted subcutaneously in the right flank of NSG mice. Once tumors grew, a similar process (harvesting tumors from mice, mincing and inserting in new mice) was implemented. Mice at the 5th passage of PDX were utilized in this experiment. After implantation subcutaneously, the tumor is allowed to grow to approximately 1,000 mm^3. Next, mice were randomized to blank nanoparticles and BTZ-loaded nanoparticles with an equivalence of 2.2 mg/kg BTZ. The tumor sizes of mice in different groups were measured through two weeks and were taken as the reflection of therapeutic effect of different formulations.

[3] = Dose escalation test on animal survival; assay type: in vivo, mice
Procedure: Dose escalation test on animal survival following local subcutaneous injection of the 1-month BTZ nanoparticle (BTZ NP) formulation in comparison with free BTZ injection via intratumor injection.
The recommended dose in patients is 1.3 mg/m^2. This dose is also the maximum tolerated dose in patients. […] One of the essential features of BTZ-NP is the ability to release active BTZ gradually. The ability of BTZ-NP to release BTZ slowly by subcutaneous injections was evaluated with increasing doses of BTZ-NP. As shown, a dose of 108 mg/m^2 could be injected without any death in rodents. This dose is approximately 80-fold higher than the dose of the free drug that is sufficient to kill rodents.

[4] = cited from earlier work

## CC(C)C[C@H](NC(=O)[C@H](Cc1ccccc1)NC(=O)c1cnccn1)B(O)O [free BTZ, bortezomib]
[1]; 37 PDO cultures, hepatocellular cancer and cholangiocarcinoma
  effectiveness across PDO lines: highly effective across all tested PDO lines
[1]; across all 37 PDO lines
  effectiveness compared with currently approved FDA drugs for unresectable liver cancers: more effective than any of the currently approved FDA drugs
[2]; high dose 0.8 mg/kg free BTZ
  animal death due to toxicity: died 1 day after injection
[2]; mouse, in vivo
  efficacy in PDX model of liver cancer: effective
[3]; 1 mg/kg free BTZ, intra-tumor injection
  cause of death: liver failure
[3]; 1 mg/kg free BTZ, single intra-tumor injection, 12.5 μg/dose, 1.5 mg/m^2
  Survival: 0/5
[3]; intratumoral injection
  lethal dose in rodent model: 1.5 mg/m^2
[4]
  recommended dose / maximum tolerated dose in patients: 1.3 mg/m^2
